Data on 3 compounds can be found in US12569494B2, “Compositions and methods to promote thymic regeneration” (Fred Hutchinson Cancer Center, priority 2018, dated 2026).

The subject of assay [1] is Ex-vivo ECs (exECs). As to the kind of experiment: Bmp4 expression by qPCR in ex-vivo thymic endothelial cells (exECs). The class given is cell-based, mice. Particulars: 50 μM Rho GTPase inhibitor, 20 h overnight, qPCR (FIG. 7A). The protocol:
(§1) FIGS. 7A, 7B. Rho GTPase inhibition, using several small molecule inhibitors, promotes the expression of Bmp4 and the II12p40 subunit of IL-23. Ex-vivo ECs (exECs) were generated from FACS purified ECs from the thymus and transduced with lentivirus containing the adenoviral gene E4orf1, as described here Proc Natl Acad Sci USA. 2008 Dec. 9; 105(49):19288-93. The exECs were cultured in Advanced DMEM-F12 (Gibco Life Technologies 12634-028) with 20% FBS, 10 mM HEPES buffer, 1% Glutamax (Life Technologies 35050061), 1% Pen Strep, 1% Non-Essential Amino Acids (Life Technologies 11140050), 50 μg/ml Endothelial cell supplement (Alfa Aesar J64516, BT-023), 5 μM SB431542 (R&D Systems 1614), 20 ng/ml FGF (Peprotech 100-18B), 10 ng/ml VEGF (Peprotech 450-32) at 37° C., 5% O2 and 5% CO2. […] Bmp4 and II-12p40 expression were determined by qPCR (exECs, n=3-6 wells from 2 separate experiments; DCs, n=3 mice).
(§2) FIGS. 10A, 10B: In vitro treatment with a synthetic miR29c mimic reduces the expression of Bmp4 & IL-23, in ECs and DCs, respectively. exECs and DCs were generated and maintained as described in FIGS. 7A, 7B. […] Bmp4 and IL-23 expression were determined by qPCR (n=3).
For orientation: Quantitative PCR measures a nucleic acid by following its amplification.

In assay [2] the test system is Thymic dendritic cells (DCs). Description: Il-12p40 / IL-23 expression by qPCR in thymic dendritic cells (DCs). It is filed as cell-based, C57BL/6 mice. Particulars: 50 μM Rho GTPase inhibitor, 20 h overnight, qPCR (FIG. 7B). The method, then:
as §1, §2

The subject of assay [3] is exECs. Description: miR29 family expression by qPCR in exECs after Rac1,2,3 inhibition. It is filed as cell-based, mice. Particulars: 50 μM inhibitor, qPCR (FIG. 11). The protocol: FIGS. 7A, 7B. Rho GTPase inhibition, using several small molecule inhibitors, promotes the expression of Bmp4 and the II12p40 subunit of IL-23. Ex-vivo ECs (exECs) were generated from FACS purified ECs from the thymus and transduced with lentivirus containing the adenoviral gene E4orf1, as described here Proc Natl Acad Sci USA. 2008 Dec. 9; 105(49):19288-93. The exECs were cultured in Advanced DMEM-F12 (Gibco Life Technologies 12634-028) with 20% FBS, 10 mM HEPES buffer, 1% Glutamax (Life Technologies 35050061), 1% Pen Strep, 1% Non-Essential Amino Acids (Life Technologies 11140050), 50 μg/ml Endothelial cell supplement (Alfa Aesar J64516, BT-023), 5 μM SB431542 (R&D Systems 1614), 20 ng/ml FGF (Peprotech 100-18B), 10 ng/ml VEGF (Peprotech 450-32) at 37° C., 5% O2 and 5% CO2. Thymic dendritic cells (DCs) were obtained from the thymus of 6 week old C57BL/6 mice, where post enzymatic digestion CD11c+ cells were isolated using magnetic beads (Miltenyi Biotech 130-108-338), and cultured in DMEM plus 10% FBS and 1% PenStrep at 37° C., 21% O2 and 5% CO2. The exECs and DCs were separately treated with 50 μM of the individual Rho GTPase inhibitors: RhoA (Millipore/Sigma, Rhosin, CAS 1173671-63-0, 555460-25MG), ROCK (TC-S 700, Tocris, 4961), Rac1,2,3 (Tocris, EHT 1864, 2161), and Cdc42 (Millipore/Sigma, CDC42 Inhibitor III, ZCL278, 500503) for 20 h overnight before being lysed and prepared for RNA extraction. Bmp4 and II-12p40 expression were determined by qPCR (exECs, n=3-6 wells from 2 separate experiments; DCs, n=3 mice).
FIG. 11. miR29c expression is reduced after Rac1 inhibition in ECs. exECs were treated with 50 μM Rac1,2,3 (Tocris, EHT 1864, 2161) inhibitor as described in FIGS. 7A, 7B. cDNA was prepared from isolated RNA using the Taqman Advanced miRNA cDNA Synthesis kit (Thermo Fisher A28007), and relative miR29c expression was assessed by qPCR (primers from Thermo Fisher A25576).

Assay [4] has as its system ECs. As to the kind of experiment: BMP4 expression in ECs after ATP. It is filed as cell-based. Particulars: NF-kB independent manner.

The structures appear in SMILES notation.

Regarding `Cl.Cl.O=c1cc(CN2CCOCC2)occ1OCCCCCSc1ccnc2cc(C(F)(F)F)ccc12` (racemic) [EHT 1864, 5-(5-(7-(Trifluoromethyl)quinolin-4-ylthio)pentyloxy)-2-(morpholinomethyl)-4H-pyran-4-one dihydrochloride], in assay [1], the Bmp4 expression result is given as “significantly upregulated”. In addition, the iI-12p40 expression entry in assay [2] is on record as “significantly upregulated”. Also, the miR29c expression result in assay [3] (compared with untreated) was “significantly reduced”. Also, in assay [3], the miR29a levels entry was “not reduced” and the miR29b levels entry was “not reduced”.
Turning to `Cl.N[C@H](Cc1c[nH]c2ccccc12)C(=O)N/N=C/c1ccc2nccnc2c1` [Rhosin, D-Tryptophan (2E)-2-(6-quinoxalinylmethylene)hydrazide hydrochloride], the Bmp4 expression result in assay [1] is given as “significantly upregulated”. Further, the iI-12p40 expression result in assay [2] is “significantly upregulated”.
As to `Nc1ncnc2c1ncn2[C@@H]1O[C@H](COP(=O)(O)OP(=O)(O)OP(=O)(O)O)[C@@H](O)[C@H]1O` [ATP], the BMP4 expression entry in assay [4] is recorded as “induces”.
